Test [1] relates to glucosidase. The test can be described thus: Starch feeding test: postprandial blood sugar after oral starch + glucosidase inhibitor in fasting rats. It is filed as in vivo, rat. To be noted: for Blood sugar ± standard deviation, 45 minutes: starch control 120 ± 7.9, fasting control 102 ± 6.7; for Blood sugar ± standard deviation, 60 minutes: starch control 118 ± 6.9, fasting control 88 ± 7.4. On the procedure:
(§1) The in vivo activity of the compound was tested on some examples using the experimental arrangement described in the following text.
(§2) Oral administration of starch or sucrose causes a rise in the blood sugar in warm-blooded animals, provided that the carbohydrates are enzymatically degraded in the small intestine to monosaccharides. The inhibition of their enzymatic hydrolysis by glucosidase inhibitors causes a reduced rise in the blood sugar.
(§3) In order to detect the action of glucosidase inhibitors, 6 fasting rats receive perorally, 1 g of broiled starch or 2.5 g of sucrose/kg in the form of an aqueous suspension or in the form of an aqueous solution (starch and sucrose control respectively). An equal number of rats receive the glucosidase inhibitor in the dose indicated, together with the same amount of the carbohydrate concerned. An equal volume of physiological sodium chloride solution is administered orally to a further six rats (control). After administration of the carbohydrate concerned±glucosidae inhibitor, the postprandial change in blood sugar is measured, at the times indicated, in blood from the postorbital venous plexus in an auto-analyser according to the method of W. S. Hoffmann [J biol. Chem 120, 51 (1937)].

Test [2] relates to glucosidase. The test can be described thus: Sucrose feeding test: postprandial blood sugar after oral sucrose + glucosidase inhibitor in fasting rats. It is filed as in vivo, rat. On the procedure: as §1, §2, §3
Setting [3] is: 10 mg/kg perorally + 1 g starch/kg, starch control 146 ± 19, fasting control 82 ± 12.
The mark [4] stands for this setting: 10 mg/kg perorally + 1 g starch/kg, starch control 144 ± 8.9, fasting control 72 ± 10.
Setting [5] is: 10 mg/kg perorally + 1 g starch/kg.
Where [6] appears, read: 10 mg/kg perorally + 2.5 g sucrose/kg, sucrose control 113 ± 6.5, fasting control 61 ± 13.
[7] abbreviates: 10 mg/kg perorally + 2.5 g sucrose/kg, sucrose control 116 ± 9.2, fasting control 65 ± 3.9.
The mark [8] stands for this setting: 10 mg/kg perorally + 2.5 g sucrose/kg, sucrose control 104 ± 12, fasting control 66 ± 6.9.
Where [9] appears, read: 10 mg/kg perorally + 2.5 g sucrose/kg, sucrose control 123 ± 8.1, fasting control 76 ± 3.7.

Here are results for eight molecules from US4175123A, “Amino-sugar derivatives, process for their preparation and pharmaceutical composition thereof” (Bayer Aktiengesellschaft, priority 1976, dated 1979).

Regarding `C[C@H]1O[C@H](O[C@H]2[C@H](O)[C@@H](O)[C@@H](O[C@H]3[C@H](O)[C@@H](O)[C@H](Oc4ccc([N+](=O)[O-])cc4)O[C@@H]3CO)O[C@@H]2CO)[C@H](O)[C@@H](O)[C@@H]1N[C@H]1C=C(CO)[C@@H](O)[C@H](O)[C@H]1O` [Compound 1, p-Nitrophenyl-O-{C}-(1→4)-O-α-D-glcp-(1→4)-β-D-glucopyranoside], the “Blood sugar ± standard deviation, 15 minutes” value stood at 93 ± 6.4 mg/dL in the test with glucosidase [1] (0.86 mg/kg perorally + 1 g starch/kg, starch control 131 ± 7.2, fasting control 60 ± 4.2) and 103 ± 6.4 mg/dL in the test with glucosidase [2] (0.86 mg/kg perorally + 2.5 g sucrose/kg, sucrose control 128 ± 8.0, fasting control 60 ± 4.6). The “Blood sugar ± standard deviation, 30 minutes” value in the test with glucosidase [1] (0.86 mg/kg perorally + 1 g starch/kg, starch control 113 ± 9.2, fasting control 62 ± 3.4) came out at 84 ± 12 mg/dL; with glucosidase [2] (0.86 mg/kg perorally + 2.5 g sucrose/kg, sucrose control 133 ± 8.7, fasting control 64 ± 3.7) it was 110 ± 10 mg/dL. Further, the “Blood sugar ± standard deviation, 45 minutes” value in the test on glucosidase [2] (0.86 mg/kg perorally + 2.5 g sucrose/kg, sucrose control 134 ± 6.1, fasting control 73 ± 7.1) was found to be 108 ± 13 mg/dL. Moreover, in the test with glucosidase [2] (0.86 mg/kg perorally + 2.5 g sucrose/kg, sucrose control 119 ± 10, fasting control 66 ± 4.2), the “Blood sugar ± standard deviation, 60 minutes” value was 107 ± 11 mg/dL.
For `C[C@H]1O[C@H](O[C@H]2[C@H](O)[C@@H](O)[C@@H](O[C@H]3[C@H](O)[C@@H](O)[C@H](Oc4ccccc4)O[C@@H]3CO)O[C@@H]2CO)[C@H](O)[C@@H](O)[C@@H]1N[C@H]1C=C(CO)[C@@H](O)[C@H](O)[C@H]1O` [Compound 2, Phenyl-O-{C}-(1→4)-O-α-D-glcp-(1→4)-β-D-glucopyranoside], the “Blood sugar ± standard deviation, 15 minutes” value came to 102 ± 10 mg/dL in the test on glucosidase [1] (setting [3]) and 79 ± 4.1 mg/dL in the test with glucosidase [2] (setting [6]). Further, the “Blood sugar ± standard deviation, 30 minutes” value came out at 73 ± 9.1 mg/dL in the test with glucosidase [1] (setting [4]) and 86 ± 10 mg/dL in the test with glucosidase [2] (setting [7]). Also, the “Blood sugar ± standard deviation, 45 minutes” value with glucosidase [1] (setting [5]) was 100 ± 6.5 mg/dL; in the test on glucosidase [2] (setting [8]), 74 ± 7.2 mg/dL. The entries for the “Blood sugar ± standard deviation, 60 minutes” value with glucosidase [1] (setting [5]) and in the test on glucosidase [2] (setting [9]) were 108 ± 9.3 mg/dL and 71 ± 15 mg/dL, respectively.
For the molecule `C[C@H]1O[C@H](O[C@H]2[C@H](O)[C@@H](O)[C@@H](O[C@H]3[C@H](O)[C@@H](O)[C@H](Oc4cccc(O)c4)O[C@@H]3CO)O[C@@H]2CO)[C@H](O)[C@@H](O)[C@@H]1N[C@H]1C=C(CO)[C@@H](O)[C@H](O)[C@H]1O` [Compound 3, m-Hydroxyphenyl-O-{C}-(1→4)-O-α-D-glcp-(1→4)-β-D- glucopyranoside], the “Blood sugar ± standard deviation, 15 minutes” value in the test with glucosidase [1] (0.92 mg/kg perorally + 1 g starch/kg, starch control 131 ± 7.2, fasting control 60 ± 4.2) worked out at 89 ± 8.0 mg/dL; with glucosidase [2] (0.92 mg/kg perorally + 2.5 g sucrose/kg, sucrose control 128 ± 8.0, fasting control 60 ± 4.6) it was 97 ± 10 mg/dL. For the same molecule, the “Blood sugar ± standard deviation, 30 minutes” value was 97 ± 13 mg/dL in the test with glucosidase [1] (0.92 mg/kg perorally + 1 g starch/kg, starch control 113 ± 9.2, fasting control 62 ± 3.4) and 108 ± 4.2 mg/dL in the test on glucosidase [2] (0.92 mg/kg perorally + 2.5 g sucrose/kg, sucrose control 133 ± 8.7, fasting control 64 ± 3.7). In addition, the “Blood sugar ± standard deviation, 45 minutes” value in the test on glucosidase [2] (0.92 mg/kg perorally + 2.5 g sucrose/kg, sucrose control 134 ± 6.1, fasting control 73 ± 7.1) was determined as 112 ± 15 mg/dL. The “Blood sugar ± standard deviation, 60 minutes” value in the test with glucosidase [2] (0.92 mg/kg perorally + 2.5 g sucrose/kg, sucrose control 119 ± 10, fasting control 66 ± 4.2) was 111 + 11 mg/dl.
Turning to `COC(=O)c1cccc(O[C@@H]2O[C@H](CO)[C@@H](O[C@H]3O[C@H](CO)[C@@H](O[C@H]4O[C@H](C)[C@@H](N[C@H]5C=C(CO)[C@@H](O)[C@H](O)[C@H]5O)[C@H](O)[C@H]4O)[C@H](O)[C@H]3O)[C@H](O)[C@H]2O)c1` [Compound 4, m-Carbomethoxyphenyl-O-{C}-(1→4)-O-α-D-glcp-(1→4)-β-D-glucopyranoside], the “Blood sugar ± standard deviation, 15 minutes” value in the test with glucosidase [1] (1.56 mg/kg perorally + 1 g starch/kg, starch control 131 ± 7.2, fasting control 60 ± 4.2) amounted to 99 ± 8.1 mg/dL; in the test on glucosidase [2] (1.56 mg/kg perorally + 2.5 g sucrose/kg, sucrose control 128 ± 8.0, fasting control 60 ± 4.6) it was 95 ± 7.0 mg/dL. For the same molecule, the “Blood sugar ± standard deviation, 30 minutes” value came to 97 ± 10 mg/dL in the test with glucosidase [1] (1.56 mg/kg perorally + 1 g starch/kg, starch control 113 ± 9.2, fasting control 62 ± 3.4) and 112 ± 5.5 mg/dL with glucosidase [2] (1.56 mg/kg perorally + 2.5 g sucrose/kg, sucrose control 133 ± 8.7, fasting control 64 ± 3.7). Moreover, the “Blood sugar ± standard deviation, 45 minutes” value in the test on glucosidase [2] (1.56 mg/kg perorally + 2.5 g sucrose/kg, sucrose control 134 ± 6.1, fasting control 73 ± 7.1) came out at 104 ± 6.7 mg/dL. The “Blood sugar ± standard deviation, 60 minutes” value with glucosidase [2] (1.56 mg/kg perorally + 2.5 g sucrose/kg, sucrose control 119 ± 10, fasting control 66 ± 4.2) amounted to 115 ± 7.0 mg/dL.
As to `COC(=O)c1ccc(O[C@@H]2O[C@H](CO)[C@@H](O[C@H]3O[C@H](CO)[C@@H](O[C@H]4O[C@H](C)[C@@H](N[C@H]5C=C(CO)[C@@H](O)[C@H](O)[C@H]5O)[C@H](O)[C@H]4O)[C@H](O)[C@H]3O)[C@H](O)[C@H]2O)cc1` [Compound 6, p-Carbomethoxyphenyl-O-{C}-(1→4)-O-α-D-glcp-(1→5)-β-D-glucopyranoside], the “Blood sugar ± standard deviation, 15 minutes” value in the test with glucosidase [1] (0.78 mg/kg perorally + 1 g starch/kg, starch control 131 ± 7.2, fasting control 60 ± 4.2) turned out to be 110 ± 6.1 mg/dL; in the test on glucosidase [2] (0.78 mg/kg perorally + 2.5 g sucrose/kg, sucrose control 128 ± 8.0, fasting control 60 ± 4.6), 96 ± 15 mg/dL. In addition, the “Blood sugar ± standard deviation, 30 minutes” value with glucosidase [1] (0.78 mg/kg perorally + 1 g starch/kg, starch control 113 ± 9.2, fasting control 62 ± 3.4) amounted to 105 ± 10 mg/dL; with glucosidase [2] (0.78 mg/kg perorally + 2.5 g sucrose/kg, sucrose control 133 ± 8.7, fasting control 64 ± 3.7) it was 100 ± 3.4 mg/dL. The “Blood sugar ± standard deviation, 45 minutes” value with glucosidase [2] (0.78 mg/kg perorally + 2.5 g sucrose/kg, sucrose control 134 ± 6.1, fasting control 73 ± 7.1) stood at 106 ± 18 mg/dL. For the same molecule, the “Blood sugar ± standard deviation, 60 minutes” value in the test on glucosidase [2] (0.78 mg/kg perorally + 2.5 g sucrose/kg, sucrose control 119 ± 10, fasting control 66 ± 4.2) was 117 ± 6.5 mg/dL.
Regarding `C[C@H]1O[C@H](O[C@H]2[C@H](O)[C@@H](O)[C@H](Oc3ccccc3)O[C@@H]2CO)[C@H](O)[C@@H](O)[C@@H]1N[C@H]1C=C(CO)[C@@H](O)[C@H](O)[C@H]1O` [Compound 13, Phenyl-O-C-(1→4)-β-D-glucopyranoside], the “Blood sugar ± standard deviation, 15 minutes” value is 70 ± 8.3 mg/dL in the test on glucosidase [1] (setting [3]) and 79 ± 6.8 mg/dL in the test on glucosidase [2] (setting [6]). Moreover, the “Blood sugar ± standard deviation, 30 minutes” value with glucosidase [1] (setting [4]) is 40 ± 6.8 mg/dL; in the test on glucosidase [2] (setting [7]), 80 ± 5.4 mg/dL. In addition, the “Blood sugar ± standard deviation, 45 minutes” value in the test with glucosidase [1] (setting [5]) turned out to be 89 ± 9.0 mg/dL; in the test on glucosidase [2] (setting [8]) it was 85 ± 16 mg/dL. For the same molecule, the “Blood sugar ± standard deviation, 60 minutes” value in the test on glucosidase [1] (setting [5]) came out at 100 ± 4.6 mg/dL; with glucosidase [2] (setting [9]), 86 ± 2.0 mg/dL.
For `CCO[C@@H]1O[C@H](CO)[C@@H](O[C@H]2O[C@H](C)[C@@H](N[C@H]3C=C(CO)[C@@H](O)[C@H](O)[C@H]3O)[C@H](O)[C@H]2O)[C@H](O)[C@H]1O` [Compound 15, Ethyl-O-{C}-(1→4)-β-D-glucopyranoside], the “Blood sugar ± standard deviation, 15 minutes” value in the test with glucosidase [2] (setting [6]) is 80 ± 6.1 mg/dL. Besides, in the test with glucosidase [2] (setting [7]), the “Blood sugar ± standard deviation, 30 minutes” value amounted to 83 ± 9.4 mg/dL. Moreover, the “Blood sugar ± standard deviation, 45 minutes” value in the test with glucosidase [2] (setting [8]) was 87 ± 4.8 mg/dL. In addition, the “Blood sugar ± standard deviation, 60 minutes” value in the test on glucosidase [2] (setting [9]) was found to be 94 ± 13 mg/dL.
Take `C[C@H]1O[C@H](O[C@H]2[C@H](O)[C@@H](O)[C@@H](O[C@@H]([C@H](O)[C@@H](O)CO)[C@H](O)CO)O[C@@H]2CO)[C@H](O)[C@@H](O)[C@@H]1N[C@H]1C=C(CO)[C@@H](O)[C@H](O)[C@H]1O` [Compound 22]: in the test on glucosidase [2] (1.54 mg/kg perorally + 2.5 g sucrose/kg, sucrose control 134 ± 13, fasting control 71 ± 3.7), the “Blood sugar ± standard deviation, 15 minutes” value was found to be 80 ± 3.7 mg/dL. Moreover, in the test on glucosidase [2] (1.54 mg/kg perorally + 2.5 g sucrose/kg, sucrose control 116 ± 20, fasting control 70 ± 5.3), the “Blood sugar ± standard deviation, 30 minutes” value worked out at 79 ± 5.2 mg/dL. In addition, the “Blood sugar ± standard deviation, 45 minutes” value in the test on glucosidase [2] (1.54 mg/kg perorally + 2.5 g sucrose/kg, sucrose control 125 ± 8.6, fasting control 77 ± 5.5) was 86 ± 4.5 mg/dL. In addition, the “Blood sugar ± standard deviation, 60 minutes” value in the test with glucosidase [2] (1.54 mg/kg perorally + 2.5 g sucrose/kg, sucrose control 112 ± 15, fasting control 78 ± 7.3) was determined as 86 ± 11 mg/dL.
